US20090130101A1, “ANTI-CANCER THERAPY WITH AN EXTRACT OF SCUTELLARIA BARBATA” (BIONOVO, INC., priority 2007, published 2009)

Assays:
[1] = system: ROS; test: ROS generation, CM-H2DCFDA conversion; type: cell-based; conditions: incubation of cells with the ROS scavenger prior to addition of BZL101, FIG. 10
[2] = system: subcutaneous cancer xenografts; type: in vivo, mice; conditions: BZL101 0.5 ml oral gavage every third day; cyclophosphamide 25 mg/Kg/day in drinking water; FIG. 6
Procedure: As in Example 1, above, 10^5 cells were administered to each animal subcutaneously on Day 0. The animals were divided into four groups. The control group received only normal drinking water. The cyclophosphamide only group received 25 mg/Kg/day of cyclophosphamide in their drinking water.

SMILES	effect on BZL101-induced ROS generation [1]	tumor growth [2]
CC(=O)N[C@@H](CS)C(=O)O [N-acetyl-cysteine]	prevented most of the increase in ROS generation	–
O=P1(N(CCCl)CCCl)NCCCO1 (centres unmarked) [cyclophosphamide]	–	inhibited tumor growth as compared to the control
